In patent US7666994B2, “Cloning and expression of gonadotropin-releasing hormone (GnRH) receptors” (University of New Hampshire, priority 2004, dated 2010):
Ends that are not written are not given here.

Assays:
lamprey GnRH receptor [1] = assay: Inositol phosphate (IP) assay in COS7 cells transiently transfected with the lamprey GnRH receptor; assay type: cell-based, sea lamprey, Petromyzon marinus; conditions: for IP response on stimulation of transiently transfected COS7 cells: in words; for LogEC50, IP accumulation: mean±SEM, n=3, COS7 cells transiently transfected with lamprey GnRH receptor, 10^-6M to 10-11 M, 1 hour at 37° C.; for IP accumulation in cells transfected with blank pcDNA3.1 vector: negative control cells without receptor, data not shown
Experimental: (§1) The coding region of the lamprey GnRH-R was inserted into the pcDNA3.1 HisTOPO mammalian expression vector (Carlsbad, Calif.) (INVITROGEN, Carlsbad, Calif.). COS7 cells were cultured in 10% fetal bovine serum (FBS) in Dulbeccos Modified Eagles Medium (DMEM) (INVITROGEN), and were maintained at 37° C. in 5% CO 2. The day before transfection, 5×10^5 cells were seeded in 60 mm culture plates. Transfection was performed using 5 μg of vector and 15 μL of Lipofectamine (INVITROGEN) in 2.4 mL total volume in Opti-MEM-I (Invitrogen) and an incubation time of 5 hours at 37° C. in 5% CO 2, after which, 2.5 mL of 20% FBS in DMEM was added and cultures were grown overnight.
(§2) Twenty-four hours after transfection (day 2), cells were trypsinized and 96-well plates were seeded with 5×10^4 cells/well, and cultures were grown overnight. Day 3, cells were stimulated with either control (ID buffer −1.0 mM 3-isobutyl-1-methylxanthine in DMEM) or varying concentrations (10^-10M to 10^-4M) of either lamprey GnRH-I or lamprey GnRH-III (in ID buffer). cAMP assays were performed using the BIOTRAK Enzymeimmunoassay system (AMERSHAM), per the manufacturers instructions. Treatments were performed in triplicate in three independent experiments, while cells transfected with blank vector were used as negative controls. Analyses were performed using GRAPHPAD (Prism, San Diego, Calif.). Inositol Phosphate Assay The inositol phosphate (IP) stimulation and extraction protocol used was adapted from previous studies. Briefly, 24 hours after transfection, cells were trypsinized, and seeded in 12-well plates at approximately 1.5×10^5 cells/well. At hour 72 cells were washed in PBS and incubated in 1 mL of 2% dialyzed fetal bovine serum and 2 μCi/mL myo […] inositol (AMERSHAM) in medium 199 (INVITROGEN). At hour 96 cells were washed 2 times with IP buffer (1×HBSS, 20 mM HEPES, 20 mM LiCL), and were pre-incubated in IP buffer for 15 minutes at 37° C., followed by stimulation with concentrations of lamprey GnRH-I or lamprey GnRH III, in IP buffer, ranging from 10^-6M to 10-11 M, for 1 hour at 37° C. with gentle shaking. The reactions were stopped with the addition of 0.2 mL of pre-chilled 20% perchloric acid, and the plates were placed on ice for 30 minutes. The wells were scraped and the extracts were transferred to sterile 1.5 mL tubes and neutralized with 5M KOH, followed by a 1 hour incubation at 4° C. Tubes were centrifuged at 5,000 rpm at 4° C. for 15 minutes, and 1.2 mL of supernatant was transferred to a new sterile 1.5 mL tube. IPs (IP, IP2 and IP3) were isolated by ion exchange chromatography using AGlX8-200 resin (Bio-Rad) in formate form. IPs were eluted with 1 M ammonium formate/0.1 M formic acid, samples were counted by liquid scintillation and data were analyzed using Prism (GRAPHPAD). Treatments were performed in triplicate in three independent experiments, and cells transfected with blank vector and non-transfected cells were used as negative controls.

[2] = system: incubated hemipituitaries of male rats; conditions: cited from earlier work
lamprey GnRH receptor [3] = assay: cAMP assay in COS7 cells transiently transfected with the lamprey GnRH receptor; assay type: cell-based, sea lamprey, Petromyzon marinus; conditions: for cAMP response on stimulation of transiently transfected COS7 cells: in words; for LogEC50, cAMP accumulation: mean±SEM, n=3, COS7 cells transiently transfected with lamprey GnRH receptor, 10^-10M to 10^-4M; for cAMP accumulation in cells transfected with blank pcDNA3.1 vector: negative control cells without receptor, data not shown
Experimental: as §1, §2

[4] = system: lamprey GnRH receptor transcript; assay: Transcriptional regulation of the GnRH receptor transcript by lamprey GnRH-III (RT-PCR, densitometry normalized to β-actin); assay type: in vivo, adult male lamprey
Experimental: Forty adult male lamprey's were injected intraperitoneally, twenty (20) with lamprey GnRH-III (200 μL of 0.45 μg/μL lamprey GnRH-III in 0.6% saline) and twenty (20) with control (200 μL of 0.6% saline). Ten (10) fish from each treatment group were sacrificed 24 hours after injection, and brains, pituitaries, kidneys, and testes were dissected and frozen in liquid nitrogen. Forty-eight hours after the first injection, the remaining animals were injected a second time with the same treatment they originally received. Twenty-four hours after the second injection, all remaining animals were sacrificed and tissues dissected and snap frozen. Total RNA was isolated from all tissues using Tri-Reagent (Molecular Research Center, Inc.), treated with RQ1 DNase (PROMEGA), and used as template for RT-PCR with the AccessQuick RT-PCR system (PROMEGA) using the same conditions as above, except 50 ng of template was used per reaction. Reactions were electrophoresed and visualized in 2% agarose gels. Parallel reactions were performed using primers to β-actin as a positive control. Receptor bands were normalized to β-actin and densitometry was performed using a Molecular Imager FX (BioRad, Hercules, Calif.) to determine effects of lamprey […] injection.

[5] = relative to lamprey GnRH-I, one statement for both signaling systems
[6] = after both one and two injections, densitometry normalized to β-actin, N=10

lamprey GnRH receptor, sequence (as listed by the source): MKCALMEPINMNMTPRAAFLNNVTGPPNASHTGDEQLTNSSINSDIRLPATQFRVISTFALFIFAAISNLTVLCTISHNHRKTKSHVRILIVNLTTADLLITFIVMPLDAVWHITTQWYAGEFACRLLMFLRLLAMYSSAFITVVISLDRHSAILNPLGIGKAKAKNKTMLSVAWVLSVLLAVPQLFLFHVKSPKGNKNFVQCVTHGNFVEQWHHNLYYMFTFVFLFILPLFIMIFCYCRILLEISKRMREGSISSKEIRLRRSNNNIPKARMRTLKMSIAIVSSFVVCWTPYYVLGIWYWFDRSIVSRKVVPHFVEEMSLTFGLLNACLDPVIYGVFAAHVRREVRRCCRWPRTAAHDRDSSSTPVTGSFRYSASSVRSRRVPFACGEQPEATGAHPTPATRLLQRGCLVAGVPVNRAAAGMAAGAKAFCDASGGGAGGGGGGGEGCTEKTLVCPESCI

Substance	IP response on stimulation of transiently transfected COS7 cells (lamprey GnRH receptor [1])	LogEC50, IP accumulation (lamprey GnRH receptor [1])	IP accumulation in cells transfected with blank pcDNA3.1 vector (lamprey GnRH receptor [1])	FSH-releasing action [2]	LH-releasing action [2]	cAMP response on stimulation of transiently transfected COS7 cells (lamprey GnRH receptor [3])	LogEC50, cAMP accumulation (lamprey GnRH receptor [3])	cAMP accumulation in cells transfected with blank pcDNA3.1 vector (lamprey GnRH receptor [3])	logEC50 fold lower than that of lamprey GnRH-I, IP system (lamprey GnRH receptor [1]; [5])	receptor transcript regulation in pituitary compared to control [4, 6]	receptor transcript regulation in testes compared to control [4, 6]	receptor transcript bands in pituitary versus control ([4]; after one injection, intraperitoneal, 24 hours after injection)	GnRH receptor transcript level in testes versus control ([4]; after one injection, intraperitoneal, 24 hours after injection, control testes high levels)	receptor transcript expression in brain ([4]; after one or two injections)	effects on receptor transcript in pituitary and testes after two injections, relative to one injection ([4]; two injections 48 hours apart, 24 hours after second injection)	logEC50 fold lower than that of lamprey GnRH-I, cAMP system (lamprey GnRH receptor [3]; [5])
lamprey GnRH-I: one of two hypothalamic GnRH isoforms (decapeptide) identified in the brain of the lamprey (QHYSLEWKPG; ends and bridges not checked)	dose dependant responses	−8.10±0.150	no response	little activity	little activity	dose dependant responses	−6.57±0.150	no response	–	–	–	–	–	–	–	–
lamprey GnRH-III: hypothalamic lamprey GnRH isoform (decapeptide), Tyr instead of Trp in the third position	dose dependant responses	−9.37±0.243	no response	potent, dose-related	–	dose dependant responses	−8.29±0.090	no response	40-50 fold	up-regulated	down-regulated	twice as bright as control	barely detectable levels	not induced	considerably lesser degree	40-50 fold
